From patent publication US8536142B2, “Spinosyns for wound healing” (Eli Lilly and Company, priority 2004, dated 2013)
Where no end group is shown, it is not given here.

System: vascular response of rat footpad blisters (CGRP, substance P, eNOS effectors)
Experiment: Blister model: effect of sensory nerve peptide antagonists and eNOS inhibitor on the vascular response to 0.5% spinosad
Assay type: in vivo
Description: Neurogenic inflammatory responses are assessed using a well-established method (Khalil & Helme, Brain Res. 527: 292-298 (1990)). Anaesthesia is induced in outbred male Sprague-Dawley rats with pentobarbitone sodium (60 mg/kg i.p). General anaesthesia is maintained by supplementary injections of 15 mg/kg. This method of anaesthesia has been shown not to alter the basal vasodilator responses in peripheral microvasculature (Khalil & Helm; Brain Res. 500: 256-262 (1989)). The left jugular vein is cannulated with polyethylene tubing for the intravenous administration of heparin/saline solution or drugs. Body temperature is maintained at 37° C. At the completion of the experiment, the animals are sacrificed by barbiturate overdose.
Blisters are induced in the middle region of the hindpaw in anaesthetised rats using vacuum pressure of −40 kPa applied for 30 minutes via a metal suction cap heated to 40° C. Once a blister is established, the epidermis (surface epithelium) is removed and a perspex chamber with inlet and outlet ports secured over the blister base. Ringer's solution is perfused over the blister surface and maintained by a peristaltic pump at 4 ml/hr to establish baseline measurements. Relative blood flow is monitored over time by a laser Doppler flowmeter via a probe placed immediately above the blister base and relative blood flux (volts) monitored continuously on a chart recorder. […]

Q: For “CGRP8-37: CGRP antagonist; Auspep (VTHRLAGLLSRSGGVVKNNFVPTNVGSKAF; ends and bridges not checked; UniProt P06881 90-119, looked up, fragment)”, which “% contribution of effector to the vascular response of spinosad” value (effector blocked by the perfused substance (eNOS, CGRP, Substance P), 0.5% spinosad) is on record?
A: 27%

Q: And the “Blood flow as area under the curve” value (substance perfused 10 minutes, then co-perfused with 0.5% spinosad 30 minutes (Control = 0.5% spinosad alone), L-NAME 100 μM, CGRP8-37 1 μM, spantide II 10 μM, mean ± SEM, n = 6)?
A: 83.2 (±6.5) cm^2
